The format of data set [1] is physicochemical. As to conditions: pH 7.
A short description of another data set: physchem. As to conditions: pH 7.
The conditions of data set [2]: pH 7.

Seven molecules from patent publication US20080027006A1 (priority 2004, published 2008) can be followed below.

Values after ≈ are worked out from the molar mass of the structure shown.

Broadly, the solubility is the dissolved amount per volume that the medium holds.

With `CC[C@H](C)[C@H](NC(=O)[C@H](C)NC(=O)[C@H](CCCCN)NC(=O)[C@H](CC(N)=O)NC(=O)[C@H](Cc1ccccc1)NC(=O)[C@H](CCC(N)=O)NC(=O)[C@H](CC(N)=O)NC(=O)[C@H](C)NC(=O)[C@@H](NC(=O)[C@H](CCC(N)=O)NC(=O)[C@H](CCCCN)NC(=O)[C@H](CCC(N)=O)NC(=O)[C@H](CC(N)=O)NC(=O)[C@H](CCC(=O)O)NC(=O)[C@H](Cc1ccc(O)cc1)NC(=O)[C@H](CC(C)C)NC(=O)[C@@H](NC(=O)[C@H](CC(N)=O)NC(=O)[C@H](CCC(N)=O)NC(C)=O)C(C)C)[C@@H](C)CC)C(=O)N[C@@H](CO)C(=O)N[C@@H](CCC(N)=O)C(=O)N[C@H](C(=O)N[C@@H](CCC(N)=O)C(=O)N[C@@H](CCC(=O)O)C(=O)N[C@@H](CO)C(=O)N[C@@H](CC(C)C)C(=O)N[C@H](C(=O)N[C@H](C(=O)N[C@H](C(=O)N[C@@H](CO)C(=O)N[C@H](C(=O)N[C@@H](C)C(=O)N[C@@H](CC(C)C)C(=O)NCC(=O)N[C@@H](CCCCN)C(N)=O)[C@@H](C)O)[C@@H](C)O)[C@@H](C)O)[C@@H](C)O)[C@@H](C)CC` [HR-N7], in data set [1], the “[θ]222, Benign” value is recorded as −2,800 degrees · cm^2 · dmol^−1.
On the same count and under the same terms, the value for `CC[C@H](C)[C@H](NC(C)=O)C(=O)N[C@@H](CCC(N)=O)C(=O)N[C@@H](CCC(=O)O)C(=O)N[C@@H](CO)C(=O)N[C@@H](CC(C)C)C(=O)N[C@H](C(=O)N[C@H](C(=O)N[C@H](C(=O)N[C@@H](CO)C(=O)N[C@H](C(=O)N[C@@H](C)C(=O)N[C@@H](CC(C)C)C(=O)NCC(=O)N[C@@H](CCCCN)C(=O)N[C@@H](CC(C)C)C(=O)N[C@@H](CCC(N)=O)C(=O)N[C@@H](CC(=O)O)C(=O)N[C@H](C(=O)N[C@H](C(=O)N[C@@H](CC(N)=O)C(=O)N[C@@H](CCC(N)=O)C(=O)N[C@@H](CC(N)=O)C(=O)N[C@@H](C)C(=O)N[C@@H](CCC(N)=O)C(=O)N[C@@H](C)C(=O)N[C@@H](CC(C)C)C(=O)N[C@@H](CC(N)=O)C(=O)N[C@H](C(=O)N[C@@H](CC(C)C)C(=O)N[C@H](C(=O)N[C@@H](CCCCN)C(=O)N[C@@H](CCC(N)=O)C(=O)N[C@@H](CC(C)C)C(=O)N[C@@H](CO)C(=O)N[C@@H](CO)C(N)=O)C(C)C)[C@@H](C)O)C(C)C)C(C)C)[C@@H](C)O)[C@@H](C)O)[C@@H](C)O)[C@@H](C)O` [HR-N10] was −3,600 degrees · cm^2 · dmol^−1; that for `CC[C@H](C)[C@H](NC(=O)[C@H](C)NC(=O)[C@H](CCCCN)NC(=O)[C@H](CC(N)=O)NC(=O)[C@H](Cc1ccccc1)NC(C)=O)C(=O)N[C@@H](CO)C(=O)N[C@@H](CCC(N)=O)C(=O)N[C@H](C(=O)N[C@@H](CCC(N)=O)C(=O)N[C@@H](CCC(=O)O)C(=O)N[C@@H](CO)C(=O)N[C@@H](CC(C)C)C(=O)N[C@H](C(=O)N[C@H](C(=O)N[C@H](C(=O)N[C@@H](CO)C(=O)N[C@H](C(=O)N[C@@H](C)C(=O)N[C@@H](CC(C)C)C(=O)NCC(=O)N[C@@H](CCCCN)C(=O)N[C@@H](CC(C)C)C(=O)N[C@@H](CCC(N)=O)C(=O)N[C@@H](CC(=O)O)C(=O)N[C@H](C(=O)N[C@H](C(=O)N[C@@H](CC(N)=O)C(=O)N[C@@H](CCC(N)=O)C(=O)N[C@@H](CC(N)=O)C(=O)N[C@@H](C)C(=O)N[C@@H](CCC(N)=O)C(=O)N[C@@H](C)C(=O)N[C@@H](CC(C)C)C(=O)N[C@@H](CC(N)=O)C(=O)N[C@H](C(N)=O)[C@@H](C)O)C(C)C)C(C)C)[C@@H](C)O)[C@@H](C)O)[C@@H](C)O)[C@@H](C)O)[C@@H](C)CC` [HR-N9] was −2,800 degrees · cm^2 · dmol^−1; that for `CC[C@H](C)[C@H](NC(=O)CNC(=O)[C@H](CC(N)=O)NC(=O)[C@H](Cc1ccccc1)NC(C)=O)C(=O)NCC(=O)N[C@H](C(=O)N[C@H](C(=O)N[C@@H](CCC(N)=O)C(=O)N[C@@H](CC(N)=O)C(=O)N[C@H](C(=O)N[C@@H](CC(C)C)C(=O)N[C@@H](Cc1ccc(O)cc1)C(=O)N[C@@H](CCC(=O)O)C(=O)N[C@@H](CC(N)=O)C(=O)N[C@@H](CCC(N)=O)C(=O)N[C@@H](CCCCN)C(=O)N[C@@H](CCC(N)=O)C(=O)N[C@H](C(=O)N[C@@H](C)C(=O)N[C@@H](CC(N)=O)C(=O)N[C@@H](CCC(N)=O)C(=O)N[C@@H](Cc1ccccc1)C(=O)N[C@@H](CC(N)=O)C(=O)N[C@@H](CCCCN)C(=O)N[C@@H](C)C(=O)N[C@H](C(=O)N[C@@H](CO)C(=O)N[C@@H](CCC(N)=O)C(=O)N[C@H](C(=O)N[C@@H](CCC(N)=O)C(=O)N[C@@H](CCC(=O)O)C(=O)N[C@@H](CO)C(=O)N[C@@H](CC(C)C)C(=O)N[C@H](C(=O)N[C@H](C(N)=O)[C@@H](C)O)[C@@H](C)O)[C@@H](C)CC)[C@@H](C)CC)[C@@H](C)CC)C(C)C)[C@@H](C)O)C(C)C` [HR-N6] was −3,300 degrees · cm^2 · dmol^−1.
On the same count and under the same terms, the result for `CC[C@H](C)[C@H](NC(=O)[C@H](C)NC(=O)[C@H](CCCCN)NC(=O)[C@H](CC(N)=O)NC(=O)[C@H](Cc1ccccc1)NC(=O)[C@H](CCC(N)=O)NC(=O)[C@H](CC(N)=O)NC(=O)[C@H](C)NC(=O)[C@@H](NC(=O)[C@H](CCC(N)=O)NC(=O)[C@H](CCCCN)NC(=O)[C@H](CCC(N)=O)NC(C)=O)[C@@H](C)CC)C(=O)N[C@@H](CO)C(=O)N[C@@H](CCC(N)=O)C(=O)N[C@H](C(=O)N[C@@H](CCC(N)=O)C(=O)N[C@@H](CCC(=O)O)C(=O)N[C@@H](CO)C(=O)N[C@@H](CC(C)C)C(=O)N[C@H](C(=O)N[C@H](C(=O)N[C@H](C(=O)N[C@@H](CO)C(=O)N[C@H](C(=O)N[C@@H](C)C(=O)N[C@@H](CC(C)C)C(=O)NCC(=O)N[C@@H](CCCCN)C(=O)N[C@@H](CC(C)C)C(=O)N[C@@H](CCC(N)=O)C(=O)N[C@@H](CC(=O)O)C(=O)N[C@H](C(=O)N[C@H](C(=O)N[C@@H](CC(N)=O)C(=O)N[C@@H](CCC(N)=O)C(N)=O)C(C)C)C(C)C)[C@@H](C)O)[C@@H](C)O)[C@@H](C)O)[C@@H](C)O)[C@@H](C)CC` [HR-N8] reads −2,500 degrees · cm^2 · dmol^−1.
With `CC[C@H](C)[C@H](NC(=O)[C@H](CCC(N)=O)NC(=O)[C@H](CO)NC(=O)[C@@H](NC(=O)[C@H](C)NC(=O)[C@H](CCCCN)NC(=O)[C@H](CC(N)=O)NC(=O)[C@H](Cc1ccccc1)NC(=O)[C@H](CCC(N)=O)NC(=O)[C@H](CC(N)=O)NC(=O)[C@H](C)NC(=O)[C@@H](NC(=O)[C@H](CCC(N)=O)NC(=O)[C@H](CCCCN)NC(=O)[C@H](CCC(N)=O)NC(=O)[C@H](CC(N)=O)NC(=O)[C@H](CCC(=O)O)NC(=O)[C@H](Cc1ccc(O)cc1)NC(=O)[C@H](CC(C)C)NC(=O)[C@@H](NC(=O)[C@H](CC(N)=O)NC(=O)[C@H](CCC(N)=O)NC(=O)[C@@H](NC(=O)[C@@H](NC(=O)CNC(=O)[C@@H](NC(=O)CNC(=O)[C@H](CC(N)=O)NC(=O)[C@H](Cc1ccccc1)NC(=O)[C@H](CCCNC(=N)N)NC(=O)[C@H](Cc1ccc(O)cc1)NC(=O)[C@H](C)NC(=O)[C@H](CCSC)NC(=O)[C@H](CCC(N)=O)NC(=O)[C@H](CCSC)NC(C)=O)[C@@H](C)CC)C(C)C)[C@@H](C)O)C(C)C)[C@@H](C)CC)[C@@H](C)CC)C(N)=O` [HR-N5], the solubility in the data set “physchem” is 15 µM (≈ 61.5 µg/mL). Also, in data set [1], the “No. Helical Residues, 50% TFE” value is 24; the “[θ]222, 50% TFE” value is given as −24,200 degrees · cm^2 · dmol^−1; the “[θ]222, Benign” value is given as −4,300 degrees · cm^2 · dmol^−1. In addition, in data set [2], the “solubility (in words)” value is “largely insoluble”.
Consider `CC[C@H](C)[C@H](NC(=O)[C@H](C)NC(=O)CNC(=O)[C@H](Cc1ccccc1)NC(=O)[C@H](CC(N)=O)NC(=O)[C@H](CO)NC(=O)[C@H](CO)NC(=O)[C@H](CC(C)C)NC(=O)[C@H](CCC(N)=O)NC(=O)[C@H](CCCCN)NC(=O)[C@@H](NC(=O)[C@H](CC(C)C)NC(=O)[C@@H](NC(=O)[C@H](CC(N)=O)NC(=O)[C@H](CC(C)C)NC(=O)[C@H](C)NC(=O)[C@H](CCC(N)=O)NC(=O)[C@H](C)NC(=O)[C@H](CC(N)=O)NC(=O)[C@H](CCC(N)=O)NC(=O)[C@H](CC(N)=O)NC(=O)[C@@H](NC(=O)[C@@H](NC(=O)[C@H](CC(=O)O)NC(=O)[C@H](CCC(N)=O)NC(=O)[C@H](CC(C)C)NC(=O)[C@H](CCCCN)NC(=O)CNC(=O)[C@H](CC(C)C)NC(=O)[C@H](C)NC(=O)[C@@H](NC(=O)[C@H](CO)NC(=O)[C@@H](NC(C)=O)[C@@H](C)O)[C@@H](C)O)C(C)C)C(C)C)[C@@H](C)O)C(C)C)C(=O)N[C@@H](CO)C(=O)N[C@@H](CO)C(N)=O` [HR-N11], for which the “[θ]222, Benign” value in data set [1] is on record as −3,200 degrees · cm^2 · dmol^−1.
